Experimental data published in ChEMBL document CHEMBL1154568, “Sulcatin, a novel antiproliferative N-methylpyridinium alkaloid from the ascidian Microcosmus vulgaris” (J Nat Prod, 2000).
Calls of active or inactive are those of the source. The calls are words filed in the database; no cut-off is given here.

Key:
[1] = test system: J774; experiment: Antiproliferative activity against mouse J774 cells after 96 hrs by MTT assay; type: cell-based; conditions: j774, 96 h
[2] = test system: WEHI; experiment: Antiproliferative activity against mouse WEHI 164 cells after 96 hrs by MTT assay; type: functional, cell-based

Compound: Cc1cc[n+](C)cc1CCC(=O)[O-] [SULCATIN]
- Activity [1]: Active
- Activity [2]: Active
